pKi: −log10 of the molar value. Where a name gives a salt, the structure may show the parent alone.
Tests used:
human 5HT1A receptors = target: T1, human 5HT1A receptors (Homo sapiens, UniProt P08908); assay: Displacement of [3H] 8-OH-DPAT from 5HT1A receptor, CHO cells stably transfected with human 5HT1A receptors; type: binding; conditions: [3H] 8-OH-DPAT displacement, CHO cells with human 5HT1A; read-out: 5HT1A Receptor Affinity Ki
T1 construct: expressed in transfected cells; host or cells: CHO cells
T1 sequence (P08908 1-422): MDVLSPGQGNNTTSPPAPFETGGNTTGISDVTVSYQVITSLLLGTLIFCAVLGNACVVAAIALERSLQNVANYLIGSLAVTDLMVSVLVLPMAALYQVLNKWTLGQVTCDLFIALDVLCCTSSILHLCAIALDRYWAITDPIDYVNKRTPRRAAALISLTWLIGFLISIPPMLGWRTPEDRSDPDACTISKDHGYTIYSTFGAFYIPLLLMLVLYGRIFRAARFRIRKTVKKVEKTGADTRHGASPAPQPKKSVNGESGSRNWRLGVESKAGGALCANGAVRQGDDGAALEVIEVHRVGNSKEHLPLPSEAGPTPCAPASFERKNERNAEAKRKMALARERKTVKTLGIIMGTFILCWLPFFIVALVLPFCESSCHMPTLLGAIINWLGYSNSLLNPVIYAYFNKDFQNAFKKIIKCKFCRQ
Excerpt: High affinity for the serotonin 5HT1A receptor was established by testing the claimed compound's ability to displace [^3H] 8-OH-DPAT (dipropylamino-tetralin) from the 5HT1A serotonin receptor following a modification of the procedure of Hall et al., J. Neurochem. 44, 1685 (1985) which utilizes CHO cells stably transfected with human 5HT1A receptors.

serotonin transporter = target: T2, serotonin transporter (Rattus norvegicus, UniProt P31652); assay: Displacement of 3H-paroxetine from male rat frontal cortical membranes (serotonin transporter affinity); type: binding; conditions: 3H-paroxetine displacement, read-out: 5-HT Transporter Affinity Ki
T2 construct: displace ^3H-paroxetine from male rat frontal cortical membranes; from tissue; host or cells: male rat frontal cortex membranes
T2 sequence (P31652 whole entry): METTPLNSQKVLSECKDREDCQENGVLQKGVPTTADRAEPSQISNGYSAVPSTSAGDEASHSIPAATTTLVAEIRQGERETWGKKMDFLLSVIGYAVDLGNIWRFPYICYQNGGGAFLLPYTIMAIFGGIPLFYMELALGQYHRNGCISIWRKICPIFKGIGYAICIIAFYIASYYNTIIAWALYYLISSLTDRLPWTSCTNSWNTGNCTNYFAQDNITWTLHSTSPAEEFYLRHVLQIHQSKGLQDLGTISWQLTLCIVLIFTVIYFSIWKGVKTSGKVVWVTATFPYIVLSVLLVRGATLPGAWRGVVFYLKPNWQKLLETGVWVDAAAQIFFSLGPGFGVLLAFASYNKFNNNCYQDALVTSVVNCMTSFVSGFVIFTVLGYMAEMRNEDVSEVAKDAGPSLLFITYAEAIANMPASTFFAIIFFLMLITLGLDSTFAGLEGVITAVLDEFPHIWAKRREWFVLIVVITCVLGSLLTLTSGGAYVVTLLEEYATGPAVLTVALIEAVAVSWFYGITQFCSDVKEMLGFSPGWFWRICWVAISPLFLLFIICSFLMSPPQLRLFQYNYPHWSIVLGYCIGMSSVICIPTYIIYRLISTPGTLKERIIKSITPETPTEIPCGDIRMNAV
Excerpt: Affinity of Compounds of the Invention for the Serotonin Transporter

| SMILES | pKi (human 5HT1A receptors) | pKi (serotonin transporter) | melting point |
| --- | --- | --- | --- |
| CNCCCCOc1ccc2c(c1)NC(=O)CO2 [Example 10, 6-[4-(Methylamino)butoxy]-2H-1,4-benzoxazin-3(4H)-one hydrochloride salt] |  | 7.23 |  |
| Cc1ccc2c3c(ccc2n1)OC[C@H](CNCCCCOc1ccc2c(c1)NC(=O)CO2)O3 (as salt: hydrochloride) [Example 6, 6-[4-({[(2S)-8-Methyl-2,3-dihydro[1,4]dioxino[2,3-f]quinolin-2-yl]methyl}amino)butoxy]-2H-1,4-benzoxazin-3(4H)-one dihydrochloride salt] |  |  | 143 °C (dec.) |
| Cc1ccc2c3c(ccc2n1)OC[C@H](CN1CCC(Oc2ccc4c(c2)NC(=O)CO4)CC1)O3 (as salt: hydrochloride) [Example 1, 6-[(1-{[(2S)-8-methyl-2,3-dihydro[1,4]dioxino[2,3-f]quinolin-2-yl]methyl}piperidin-4-yl)oxy]-2H-1,4-benzoxazin-3(4H)-one dihydrochloride salt] |  |  | 216 to 219 °C (dec.) |
| Cc1ccc2c3c(ccc2n1)OC[C@H](CNCCCOc1ccc2c(c1)NC(=O)CO2)O3 (as salt: hydrochloride) [Example 7, 6-[3-({[(2S)-8-Methyl-2,3-dihydro[1,4]dioxino[2,3-f]quinolin-2-yl]methyl}amino)propoxy]-2H-1,4-benzoxazin-3(4H)-one dihydrochloride salt] |  |  | 184 °C (dec.) |
| CNCCCCOc1ccc2c(c1)NC(=O)CO2 (as salt: hydrochloride) [Example 10, 6-[4-(Methylamino)butoxy]-2H-1,4-benzoxazin-3(4H)-one hydrochloride salt] |  |  | 210 to 212 °C |
| Cc1ccc2c3c(ccc2n1)OC[C@H](CN1CCC(Cc2ccc4c(c2)N(C)C(=O)CO4)CC1)O3 (as salt: hydrochloride) [Example 12, 4-Methyl-6-[(1-{[(2S)-8-methyl-2,3-dihydro[1,4]dioxino[2,3-f]quinolin-2-yl]methyl}piperidin-4-yl)methyl]-2H-1,4-benzoxazin-3(4H)-one dihydrochloride salt] |  |  | 205 to 208 °C |
| Cc1ccc2c3c(ccc2n1)OC[C@H](CNC1CCN(c2ccc4c(c2)NC(=O)CO4)CC1)O3 [Example 18, 6-(4-{[(8-methyl-2,3-dihydro[1,4]dioxino[2,3-f]quinolin-2-yl)methyl]amino}piperidin-1-yl)-2H-1,4-benzoxazin-3(4H)-one dihydrochloride salt] | 9.03 | 7.45 |  |
| Cc1ccc2c3c(ccc2n1)OC[C@H](CNCCCOc1ccc2c(c1)NC(=O)CO2)O3 [Example 7, 6-[3-({[(2S)-8-Methyl-2,3-dihydro[1,4]dioxino[2,3-f]quinolin-2-yl]methyl}amino)propoxy]-2H-1,4-benzoxazin-3(4H)-one dihydrochloride salt] | 10.00 |  |  |
| Cc1ccc2c3c(ccc2n1)OC[C@H](CN1CC[C@@H](Oc2ccc4c(c2)NC(=O)CO4)C1)O3 (as salt: hydrochloride) [Example 9, 6-{[(3R)-1-{[(2S)-8-Methyl-2,3-dihydro[1,4]dioxino[2,3-f]quinolin-2-yl]methyl}pyrrolidin-3-yl]oxy}-2H-1,4-benzoxazin-3(4H)-one dihydrochloride salt] |  |  | 183 °C (dec.) |
| Cc1ccc2c3c(ccc2n1)OC[C@H](CN1CCC(CCc2ccc4c(c2)NC(=O)CO4)CC1)O3 (as salt: hydrochloride) [Example 14, 6-[2-(1-{[(2S)-8-Methyl-2,3-dihydro[1,4]dioxino[2,3-f]quinolin-2-yl]methyl}piperidin-4-yl)ethyl]-2H-1,4-benzoxazin-3(4H)-one dihydrochloride salt] |  |  | 202 to 205 °C |
| Cc1ccc2c3c(ccc2n1)OC[C@H](CNCCCCOc1ccc2c(c1)NC(=O)CO2)O3 [Example 6, 6-[4-({[(2S)-8-Methyl-2,3-dihydro[1,4]dioxino[2,3-f]quinolin-2-yl]methyl}amino)butoxy]-2H-1,4-benzoxazin-3(4H)-one dihydrochloride salt] | 9.60 | 7.92 |  |
| Cc1ccc2c3c(ccc2n1)OC[C@H](CN1CCC(CCc2ccc4c(c2)N(C)C(=O)CO4)CC1)O3 (as salt: hydrochloride) [Example 13, 4-Methyl-6-[2-(1-{[(2S)-8-methyl-2,3-dihydro[1,4]dioxino[2,3-f]quinolin-2-yl]methyl}piperidin-4-yl)ethyl]-2H-1,4-benzoxazin-3(4H)-one dihydrochloride salt] |  |  | 185 to 189 °C |
| Cc1ccc2c3c(ccc2n1)OC[C@H](CN1CCC(Cc2ccc4c(c2)NC(=O)CO4)CC1)O3 (as salt: hydrochloride) [Example 2, 6-[(1-{[(2S)-8-Methyl-2,3-dihydro[1,4]dioxino[2,3-f]quinolin-2-yl]methyl}piperidin-4-yl)methyl]-2H-1,4-benzoxazin-3(4H)-one dihydrochloride] |  |  | 215 °C (dec.) |

Other lines, results leading:

| pKi (human 5HT1A receptors) | pKi (serotonin transporter) | melting point | SMILES |
| --- | --- | --- | --- |
| 9.17 | 7.09 |  | Cc1ccc2c3c(ccc2n1)OC[C@H](CN1CCCC(Cc2ccc4c(c2)N(C)C(=O)CO4)C1)O3 (stereo partly drawn) [Example 15, 4-Methyl-6-[(1-{[(2S)-8-methyl-2,3-dihydro[1,4]dioxino[2,3-f]quinolin-2-yl]methyl}piperidin-3-yl)methyl]-2H-1,4-benzoxazin-3(4H)-one dihydrochloride salt] |
| 9.55 | 7.42 |  | Cc1ccc2c3c(ccc2n1)OC[C@H](CN1CCC(Oc2ccc4c(c2)NC(=O)CC4)CC1)O3 [Example 17, 7-[(1-{[(2S)-8-Methyl-2,3-dihydro[1,4]dioxino[2,3-f]quinolin-2-yl]methyl}piperidin-4-yl)oxy]-3,4-dihydroquinolin-2(1H)-one dihydrochloride salt] |
|  | 7.09 |  | CNCCCOc1ccc2c(c1)NC(=O)CO2 [Example 11, 6-[3-(Methylamino)propoxy]-2H-1,4-benzoxazin-3(4H)-one] |
|  |  | 183 °C (dec.) | Cc1ccc2c3c(ccc2n1)OC[C@H](CN1CC[C@H](Oc2ccc4c(c2)NC(=O)CO4)C1)O3 (as salt: hydrochloride) [Example 8, 6-{[(3S)-1-{[(2S)-8-Methyl-2,3-dihydro[1,4]dioxino[2,3-f]quinolin-2-yl]methyl}pyrrolidin-3-yl]oxy}-2H-1,4-benzoxazin-3(4H)-one dihydrochloride salt] |
| 9.23 | 8.58 |  | Cc1ccc2c3c(ccc2n1)OC[C@H](CN1CCC(CCc2ccc4c(c2)NC(=O)CO4)CC1)O3 [Example 14, 6-[2-(1-{[(2S)-8-Methyl-2,3-dihydro[1,4]dioxino[2,3-f]quinolin-2-yl]methyl}piperidin-4-yl)ethyl]-2H-1,4-benzoxazin-3(4H)-one dihydrochloride salt] |
| 8.83 | 7.74 |  | Cc1ccc2c3c(ccc2n1)OC[C@H](CN1CC[C@H](Oc2ccc4c(c2)NC(=O)CO4)C1)O3 [Example 8, 6-{[(3S)-1-{[(2S)-8-Methyl-2,3-dihydro[1,4]dioxino[2,3-f]quinolin-2-yl]methyl}pyrrolidin-3-yl]oxy}-2H-1,4-benzoxazin-3(4H)-one dihydrochloride salt] |
|  |  | 164 °C (dec.) | Cc1ccc2c3c(ccc2n1)OC[C@H](CN1CCC(Oc2ccc4c(c2)N(C)C(=O)CO4)CC1)O3 (as salt: hydrochloride) [Example 5, 4-Methyl-6-[(1-{[(2S)-8-methyl-2,3-dihydro[1,4]dioxino[2,3-f]quinolin-2-yl]methyl}piperidin-4-yl)oxy]-2H-1,4-benzoxazin-3(4H)-one dihydrochloride salt] |
|  |  | 193 to 194 °C | CNCCCOc1ccc2c(c1)NC(=O)CO2 (as salt: hydrochloride) [Example 11, 6-[3-(Methylamino)propoxy]-2H-1,4-benzoxazin-3(4H)-one] |
|  |  | 240 °C (dec.) | Cc1ccc2c3c(ccc2n1)OC[C@H](CNC1CCN(c2ccc4c(c2)NC(=O)CO4)CC1)O3 (as salt: hydrochloride) [Example 18, 6-(4-{[(8-methyl-2,3-dihydro[1,4]dioxino[2,3-f]quinolin-2-yl)methyl]amino}piperidin-1-yl)-2H-1,4-benzoxazin-3(4H)-one dihydrochloride salt] |
|  |  | 249 to 251 °C | Cc1ccc2c3c(ccc2n1)OC[C@H](CN1CCCC(Cc2ccc4c(c2)N(C)C(=O)CO4)C1)O3 (stereo partly drawn) (as salt: hydrochloride) [Example 15, 4-Methyl-6-[(1-{[(2S)-8-methyl-2,3-dihydro[1,4]dioxino[2,3-f]quinolin-2-yl]methyl}piperidin-3-yl)methyl]-2H-1,4-benzoxazin-3(4H)-one dihydrochloride salt] |
|  |  | 200 to 205 °C | Cc1ccc2c3c(ccc2n1)OC[C@H](CN1CCCC(Cc2ccc4c(c2)NC(=O)CO4)C1)O3 (stereo partly drawn) (as salt: hydrochloride) [Example 16, 6-[(1-{[(2S)-8-Methyl-2,3-dihydro[1,4]dioxino[2,3-f]quinolin-2-yl]methyl}piperidin-3-yl)methyl]-2H-1,4-benzoxazin-3(4H)-one dihydrochloride salt] |
